Legend:
[1] = test system: plasma lipid peroxidation; experiment: Ex vivo peroxyl radical (AAPH)-induced lipid peroxidation of plasma from apoE−/−;LDLr−/− mice; assay type: in vivo; details: pooled plasma of bisphenol-treated mice, 5 mM AAPH, 37° C.
Method: Pooled plasma obtained from at least 3 mice receiving control diet (circles) or diet supplemented with bisphenol (squares) were treated with 5 mM AAPH and incubated at 37° C. At the times indicted aliquots were removed and analysed for α-TOH (A) and CE-O(O)H (B). 100% α-TOH levels correspond to 28±3 and 20±2 μM for control and H 212/43 plasma, respectively. Data represents the mean±SD (n=4 independent experiments).
Oxidation of plasma, pooled from=3 mice was carried out by addition of the peroxyl radical generator (final concentrations 5 mM) and incubating the reaction mixture at 37° C. under air. Aliquots (50 μL) of the reaction mixture were removed, extracted in methanol/hexane (1:5, v/v), and the consumption of antioxidants and accumulation of lipid oxidation products determined.
Analyses of oxidised and non-oxidised lipids were carried out by RP-HPLC as described in Example 1 except that in some instances UV234 nm rather than post-column chemiluminescence detection was used to measure C18:2-OOH and the corresponding hydroxides (together referred to as CE-O(O)H) which show similar retention times under these chromatographic conditions. α-TQ, α-TOH, α-tocotrienol, D-isosascorbate and ascorbate were determined by HPLC with electrochemical detection. […] All compounds were quantified by peak area comparison with authentic standards. […]

α-tocopheroxyl radical = experiment: Tocopheroxyl radical attenuating ability (TRAA); assay type: biochemical; details: kobs in presence (+) or absence (−) of test compound
[2] = test system: aortic lipoprotein lipid peroxidation; experiment: Aqueous and lipophilic parameters of apoE−/−;LDLr−/− mouse aortae; assay type: in vivo, mice
Method: Pooled aortas from 7-8 mice obtained from control or bisphenol-treated mice were homogenized, the lipid extracted and subjected to HPLC with post-column chemiluminescence detection for analysis of cholesteryl ester hydroperoxides (CE-OOH). Chromatograms correspond to aortas of age-matched control (a or b) or drug-treated mice with low or high plasma levels of bisphenol (c and d, respectively). Under the conditions used, CE-OOH eluted between 8 and 9.5 min. The chemiluminescence negative peaks between 4 and 5.5 min correspond to the elution of tocopherols.
Male apoE−/−;LDLr−/− mice (59 total), were maintained on standard R3 chow from weaning to 8 weeks of age (young controls, n=9). […]
Analyses of oxidised and non-oxidised lipids were carried out by RP-HPLC as described in Example 1 except that in some instances UV234 nm rather than post-column chemiluminescence detection was used to measure C18:2-OOH and the corresponding hydroxides (together referred to as CE-O(O)H) which show similar retention times under these chromatographic conditions. α-TQ, α-TOH, α-tocotrienol, D-isosascorbate and ascorbate were determined by HPLC with electrochemical detection. For oxidation of plasma, unesterified cholesterol (which remained non-oxidised in these experiments) was employed as internal standard for all polyunsaturated, lipid-soluble components analysed. […]

[3] = test system: tocopherol-mediated peroxidation (TMP); experiment: Anti-TMP index; assay type: biochemical
[4] = test system: atherosclerosis in apoE−/−;LDLr−/− mice; experiment: Atherosclerosis (intima volume, descending thoracic aorta) in apoE−/−;LDLr−/− mice; assay type: in vivo; details: bisphenol for 14 weeks, compared with age-matched controls
Method: Lesion formation was assessed by changes to intima volume when compared with young and age-matched controls receiving standard chow for 8 and 22 weeks, respectively. *Denotes a statistically significant difference with α<0.025 (Wilcoxon test).
Aortic lesions were assessed in segments centered around the third pair of intercostal artery branches in the descending thoracic aorta. Briefly, the fixed aortas were dehydrated in ethanol, cleared with xylene and embedded in paraffin. Serial sections (10 in total; each 2-3 μm thick and 100 μm apart) were cut and stained using Weigerts hematoxylin-van Gieson. Aortic thickening was assessed as the total volume of intima in the segment investigated in bisphenol-treated versus control samples.
Aortic volumes were determined by planimetry, using a Lucivid device (MicroBrightField, Colchester, Vermont, […]) attached to a Leitz DRM microscope that allowed the superposition of a computer monitor onto the cross sectional image.

In the case of `CC(C)(C)c1cc(-c2cc(C(C)(C)C)c(O)c(C(C)(C)C)c2)cc(C(C)(C)C)c1O` [Bisphenol], the “CE-OOH detected after 12 h of oxidation” value [1] is reported as < 1 µM, the “α-TOH after 12 h of oxidation” value [1] is reported as “remained unaltered” and the “TRAA (decay of α-tocopheroxyl radical; kobs(+)/kobs(−))” value (α-tocopheroxyl radical) is reported as “Immediate decay”. For the same molecule, the “level of oxidised lipids in aortas, fold lower than control” value ([2]; drug-treated animals with high plasma levels of bisphenol) was 1000 fold, the “level of oxidised lipids in aortas, fold lower than control” value ([2]; drug-treated animals with low plasma levels of bisphenol) was 10 fold and the Anti-TMP index [3] was 3.2. For the same molecule, the “lesion size (intimal volume, descending thoracic aorta)” value [4] was “substantially decreased the lesion size”.

Reference: patent US20030176511A1, “Compositions and methods for treating cardiovascular disorders” (priority 2000, published 2003)
